Data as given in patent publication US8772500B2, “TRPV3 modulators” (AbbVie Inc., priority 2011, dated 2014).

Experiments:
human TRPV3 = target: T1, human TRPV3 (Homo sapiens, UniProt Q8NET8); assay: In vitro antagonism of recombinant human TRPV3 activation (FLIPR Tetra calcium assay, 2-APB as agonist); type: cell-based; details: HEK293 cells stably expressing human TRPV3; 2-APB 80 μM; range class; read-out: IC50 (reported range)
T1 construct: expressed in transfected cells
T1 sequence (Q8NET8 1-790): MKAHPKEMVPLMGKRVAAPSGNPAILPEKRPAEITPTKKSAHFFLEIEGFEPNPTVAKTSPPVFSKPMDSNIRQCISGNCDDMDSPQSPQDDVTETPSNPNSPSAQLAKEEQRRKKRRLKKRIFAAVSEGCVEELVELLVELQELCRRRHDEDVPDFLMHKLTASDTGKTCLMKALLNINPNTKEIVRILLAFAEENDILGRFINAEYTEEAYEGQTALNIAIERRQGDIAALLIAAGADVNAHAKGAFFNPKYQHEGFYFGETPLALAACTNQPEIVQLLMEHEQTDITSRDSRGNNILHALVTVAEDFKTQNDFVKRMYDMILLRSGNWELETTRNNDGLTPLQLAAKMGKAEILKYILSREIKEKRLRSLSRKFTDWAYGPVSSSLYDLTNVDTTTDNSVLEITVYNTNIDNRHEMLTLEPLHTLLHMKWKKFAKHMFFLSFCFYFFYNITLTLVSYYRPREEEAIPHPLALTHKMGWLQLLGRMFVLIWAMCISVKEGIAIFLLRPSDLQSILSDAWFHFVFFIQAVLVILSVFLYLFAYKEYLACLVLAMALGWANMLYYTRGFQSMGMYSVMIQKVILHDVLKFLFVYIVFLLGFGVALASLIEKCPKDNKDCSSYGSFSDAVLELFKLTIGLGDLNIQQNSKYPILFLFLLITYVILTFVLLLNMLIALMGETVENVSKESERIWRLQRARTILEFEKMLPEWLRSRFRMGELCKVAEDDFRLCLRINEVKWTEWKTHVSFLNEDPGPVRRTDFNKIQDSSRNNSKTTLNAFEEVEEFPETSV
Method: Test compounds were evaluated for ability to antagonize the activation of recombinant human TRPV3 using FLIPR® Tetra cellular screening. Specifically, on the day prior to the experiment recombinant HEK293 cells that stably express human TRPV3 were removed from tissue culture flasks and plated in growth medium at 20,000 cells/well into Poly-d-lysine coated black/clear 384-well Plate (Corning, 3845) using a Multidrop® dispenser (ThermoScientific, Waltham, Mass.). Prior to the start of the assay, the medium was removed by aspiration, and cells were loaded with 30 μL no-wash FLIPR® Calcium-4 dye (λEX=470-495 nm, λEM=515-575 nm; Molecular Devices, Sunnyvale, Calif.). The cells were then incubated for 90-120 minutes in the dark prior to addition of the test compound.
A double-addition protocol was used. The test compound (i.e., the TRPV3 antagonist) was added at the 10 second time point, followed by the addition of a TRPV3 agonist three minutes later. Each test compound evaluated was first dissolved in DMSO to prepare a 10 mM stock solution. A solution (5×) of the test compound was then prepared in DPBS (Dulbecco's Phosphate Buffered Saline) and 10 μL of that solution was added to the cells at a delivery rate of 40 μL/sec. The TRPV3 agonist used to activate human TRPV3 expressed by the […] was 2-aminoethoxy-diphenyl borate (2-APB; Tocris Cookson, Ellisville, Mo.) at 80 μM. Final assay volume was 50 μL. Total length of an experimental run was 10 minutes.
Changes in fluorescence were measured over time using the FLIPR® instrument. The intensity of the fluorescence was captured and digitally transferred to an interfaced computer. The maximum response minus minimum response was calculated and expressed as the percentage of the maximum 2-APB response in the absence of antagonist. The concentration of 2-APB corresponds to its EC80.
Table 1 reports the IC50 values measured for the test compounds as human TRPV3 antagonists. […] Actual measured values are shown parenthetically after the reported range. In most cases, the values reported are average values from at least two runs (i.e., n≧2).

[1] = In vitro rat microsomal stability assay; type: in vitro ADME, rat (Sprague-Dawley); details: Sprague-Dawley, rat, 0.5 h, 0.5 μM, pH 7.4
Method: (§1) Test compounds were evaluated for metabolic stability in an in vitro rat microsomal stability assay using rat (Sprague-Dawley, from BD Biosciences) liver microsomes and/or an in vitro human microsomal stability assay using human (Xenotech) liver microsomes. […] Incubations were carried out at 37° C. with a final incubation volume of 135 μL. […] A 1.5 μL aliquot of reduced nicotine adenine disphosphonucleotide (NADPH) (Chem-Impex Int'L Inc., Lot 12532024) was also added to the time-zero plates.

[2] = In vitro human microsomal stability assay; type: in vitro ADME; details: human, 0.5 h, 0.5 μM, pH 7.4
Method: as §1

| SMILES | IC50 (human TRPV3) [µM] | RAT MICROSOMAL STABILITY (% REMAINING AFTER 30 MINUTES) [1] [%] | HUMAN MICROSOMAL STABILITY (% REMAINING AFTER 30 MINUTES) [2] [%] |
| --- | --- | --- | --- |
| OC(c1ncccn1)C1(c2ccc(OC(F)(F)F)cc2)CCC1 (stereo not shown) [Example 31, pyrimidin-2-yl{1-[4-(trifluoromethoxy)phenyl]cyclobutyl}methanol] | 1.1 to 5 | – | – |
| OC(c1ncccn1)C1(c2ccc(F)c(F)c2)CCC1 (stereo not shown) [Example 35, [1-(3,4-difluorophenyl)cyclobutyl](pyrimidin-2-yl)methanol] | 5.1 to 20 | – | – |
| CC(c1cccc(F)c1)C1(C(O)c2ccccn2)CCC1 (stereo not shown) [Example 47, {1-[1-(3-fluorophenyl)ethyl]cyclobutyl}(pyridin-2-yl)methanol] | 1.1 to 5 | – | – |
| CC(c1ccccc1F)C1(C(O)c2ccccn2)CCC1 (stereo not shown) [Example 48, {1-[1-(2-fluorophenyl)ethyl]cyclobutyl}(pyridin-2-yl)methanol] | 5.1 to 20 | – | – |
| CC(c1ccc(C(F)(F)F)cc1)C1(C(O)c2ccccn2)CCC1 (stereo not shown) [Example 53, pyridin-2-yl(1-{1-[4-(trifluoromethyl)phenyl]ethyl}cyclobutyl)methanol] | 1.1 to 5 | – | – |
| OC(c1ccccn1)C1(c2ccc(Cl)cc2)CCOCC1 (stereo not shown) [Example 64, [4-(4-chlorophenyl)tetrahydro-2H-pyran-4-yl](pyridin-2-yl)methanol] | 1.1 to 5 | – | – |
| OC(c1ccccn1)C1(c2ccc(C(F)(F)F)cc2)CCOCC1 (stereo not shown) [Example 65, pyridin-2-yl{4-[4-(trifluoromethyl)phenyl]tetrahydro-2H-pyran-4-yl}-methanol] | 1.1 to 5 | – | – |
| OC(CC1(c2ccc(Cl)cc2)CCC1)c1ccccn1 (stereo not shown) [Example 69, 2-[1-(4-chlorophenyl)cyclobutyl]-1-(pyridin-2-yl)ethanol] | 1.1 to 5 | – | – |
| OC(CC1(c2cccc(F)c2)CCC1)c1ccccn1 (stereo not shown) [Example 71, 2-[1-(3-fluorophenyl)cyclobutyl]-1-(pyridin-2-yl)ethanol] | 1.1 to 5 | – | – |
| OC(CC1(c2cccc(Cl)c2)CCC1)c1ccccn1 (stereo not shown) [Example 72, 2-[1-(3-chlorophenyl)cyclobutyl]-1-(pyridin-2-yl)ethanol] | 1.1 to 5 | – | – |
| OC(c1ccccn1)C1(c2cccc(OC(F)(F)F)c2)CCOC1 (stereo not shown) [Example 80, pyridin-2-yl{3-[3-(trifluoromethoxy)phenyl]tetrahydrofuran-3-yl}methanol] | 1.1 to 5 | – | – |
| OC(c1ccccn1)C1(c2cccc(Cl)c2)COC1 (stereo not shown) [Example 86, [3-(3-chlorophenyl)oxetan-3-yl](pyridin-2-yl)methanol] | 1.1 to 5 | – | – |
| O=C1CC(c2cc(C(F)(F)F)ccn2)(C(O)c2ccccn2)C1 (stereo not shown) [Example 293, 3-[hydroxy(pyridin-2-yl)methyl]-3-[4-(trifluoromethyl)pyridin-2-yl]cyclobutanone] | – | 69 | 78 |
| OC1CC(c2cc(C(F)(F)F)ccn2)([C@H](O)c2ccccn2)C1 (stereo partly drawn) [Example 294, 3-[(S)-hydroxy(pyridin-2-yl)methyl]-3-[4-(trifluoromethyl)pyridin-2-yl]cyclobutanol] | – | >85 | >85 |
| O=C1CC(c2cncc(C(F)(F)F)c2)(C(O)c2ccccn2)C1 (stereo not shown) [Example 295, 3-[hydroxy(pyridin-2-yl)methyl]-3-[5-(trifluoromethyl)pyridin-3-yl]cyclobutanone] | – | 8.2 | 70 |
| O=C1CC(c2cncc(C(F)(F)F)c2)([C@H](O)c2ccccn2)C1 [Example 296, 3-[(S)-hydroxy(pyridin-2-yl)methyl]-3-[5-(trifluoromethyl)pyridin-3-yl]cyclobutanone] | – | 12 | 67 |

Now from value to compound:

| IC50 (human TRPV3) [µM] | RAT MICROSOMAL STABILITY (% REMAINING AFTER 30 MINUTES) [1] [%] | HUMAN MICROSOMAL STABILITY (% REMAINING AFTER 30 MINUTES) [2] [%] | SMILES |
| --- | --- | --- | --- |
| 5.1 to 20 | – | – | OC(c1ncccn1)C1(c2cccc(F)c2)CCC1 (stereo not shown) [Example 33, [1-(3-fluorophenyl)cyclobutyl](pyrimidin-2-yl)methanol] |
| 5.1 to 20 | – | – | OC(c1ncccn1)C1(c2ccccc2OC(F)(F)F)CCC1 (stereo not shown) [Example 36, pyrimidin-2-yl{1-[2-(trifluoromethoxy)phenyl]cyclobutyl}methanol] |
| 5.1 to 20 | – | – | CC(c1cccc(Cl)c1)C1(C(O)c2ccccn2)CCC1 (stereo not shown) [Example 44, {1-[1-(3-chlorophenyl)ethyl]cyclobutyl}(pyridin-2-yl)methanol] |
| 5.1 to 20 | – | – | CC(c1ccccc1)C1(C(O)c2ccccn2)CCC1 (stereo not shown) [Example 51, [1-(1-phenylethyl)cyclobutyl](pyridin-2-yl)methanol] |
| 5.1 to 20 | – | – | OC(c1ccccn1)C1(c2ccccc2)CCOCC1 (stereo not shown) [Example 60, (4-phenyltetrahydro-2H-pyran-4-yl)(pyridin-2-yl)methanol] |
| 5.1 to 20 | – | – | OC(c1ccccn1)C1(c2cccc(F)c2)CCOCC1 (stereo not shown) [Example 61, [4-(3-fluorophenyl)tetrahydro-2H-pyran-4-yl](pyridin-2-yl)methanol] |
| 5.1 to 20 | – | – | OC(c1ccccn1)C1(c2ccc(F)cc2)CCOCC1 (stereo not shown) [Example 62, [4-(4-fluorophenyl)tetrahydro-2H-pyran-4-yl](pyridin-2-yl)methanol] |
| 5.1 to 20 | – | – | OC(c1ccccn1)C1(c2ccc(F)c(F)c2)CCOCC1 (stereo not shown) [Example 63, [4-(3,4-difluorophenyl)tetrahydro-2H-pyran-4-yl](pyridin-2-yl)methanol] |
| 1.1 to 5 | – | – | OC(CC1(c2ccccc2)CCC1)c1ccccn1 (stereo not shown) [Example 68, 2-(1-phenylcyclobutyl)-1-(pyridin-2-yl)ethanol] |
| 5.1 to 20 | – | – | OC(CC1(c2ccc(F)cc2)CCC1)c1ccccn1 (stereo not shown) [Example 70, 2-[1-(4-fluorophenyl)cyclobutyl]-1-(pyridin-2-yl)ethanol] |
| 1.1 to 5 | – | – | OC(CC1(c2ccc(Cl)c(Cl)c2)CCC1)c1ccccn1 (stereo not shown) [Example 73, 2-[1-(3,4-dichlorophenyl)cyclobutyl]-1-(pyridin-2-yl)ethanol] |
| 1.1 to 5 | – | – | OC(c1ccccn1)C1(c2ccc(C(F)(F)F)cc2)CCOC1 (stereo not shown) [Example 78, pyridin-2-yl{3-[4-(trifluoromethyl)phenyl]tetrahydrofuran-3-yl}methanol] |
| – | 2.0 | >85 | OC(c1ccccn1)C1(c2ccnc(C(F)(F)F)c2)CC2(C1)OCCO2 (stereo not shown) [Example 297, pyridin-2-yl{2-[2-(trifluoromethyl)pyridin-4-yl]-5,8-dioxaspiro[3.4]oct-2-yl}methanol] |
| – | 59 | 80 | O=C1CC(c2ccnc(C(F)(F)F)c2)(C(O)c2ccccn2)C1 (stereo not shown) [Example 298, 3-[hydroxy(pyridin-2-yl)methyl]-3-[2-(trifluoromethyl)pyridin-4-yl]cyclobutanone] |
| – | >85 | >85 | O=C1CC(c2ccnc(C(F)(F)F)c2)([C@H](O)c2ccccn2)C1 [Example 299, 3-[(S)-hydroxy(pyridin-2-yl)methyl]-3-[2-(trifluoromethyl)pyridin-4-yl]cyclobutanone] |
| – | >85 | >85 | CC1(O)CC(c2ccc(OC(F)(F)F)cc2)(C(O)c2ncccn2)C1 [Example 310, (trans)-3-((S)-hydroxy(pyrimidin-2-yl)methyl)-1-methyl-3-(4-(trifluoromethoxy)phenyl)cyclobutanol] |
